This note sets out measurements from ChEMBL document CHEMBL5335800, “Focused Screening Identifies Different Sensitivities of Human TET Oxygenases to the Oncometabolite 2-Hydroxyglutarate” (J Med Chem, 2024).

In data set [1] the test system is U2OS. It is filed as toxicity, cell-based. As to conditions: human.
Data set [2] concerns the target T1, Methylcytosine dioxygenase TET1 (Homo sapiens, UniProt Q8NFU7). The data set can be described thus: Inhibition of N-terminal 3xFlag-tagged human TET1 catalytic domain (E1418 to V2136 residues) expressed in Sf9 cells using 5-methylcytosine as substrate preincubated for 10 mins followed by DNA-cofactor addition and measured after 30 mins by Alphascreen assay. (In general: Alpha assays give light when donor and acceptor beads are brought close together.)

Data set [3] concerns the target T2, Methylcytosine dioxygenase TET3 (Homo sapiens, UniProt O43151). As to the kind of experiment: Inhibition of human TET3 catalytic domain (E824 to I1795 residues) expressed in mammalian cells using 5-methylcytosine as substrate preincubated for 10 mins followed by DNA-cofactor addition and measured after 10 mins by Alphascreen assay.
For data set [4], the species on record is Homo sapiens. As to the kind of experiment: Inhibition of N-terminal His-tagged recombinant human TET2 catalytic domain LCIdel mutant (D1129 to G1936 residues with Y1481 to N1843 replaced by a 3 x GGGGS linker) expressed in Escherichia coli BL21 (DE3) using 5-methylcytosine as substrate at 100 uM preincubated for 10 mins followed by DNA-cofactor addition and measured after 10 mins by Alphascreen assay relative to control. As to conditions: time 20.0 min.

Data set [5] deals with T1, Methylcytosine dioxygenase TET1. As to the kind of experiment: Inhibition of N-terminal 3xFlag-tagged human TET1 catalytic domain (E1418 to V2136 residues) expressed in Sf9 cells using 5-methylcytosine as substrate at 100 uM preincubated for 10 mins followed by DNA-cofactor addition and measured after 30 mins by Alphascreen assay relative to control. As to conditions: time 40.0 min.

For data set [6], the target named is T2, Methylcytosine dioxygenase TET3. As to the kind of experiment: Inhibition of human TET3 catalytic domain (E824 to I1795 residues) expressed in mammalian cells using 5-methylcytosine as substrate at 100 uM preincubated for 10 mins followed by DNA-cofactor addition and measured after 10 mins by Alphascreen assay relative to control. Particulars: time 20.0 min.

For data set [7], the species on record is Homo sapiens. Particulars: dose 100.0 µM, time 20.0 min.
The target of data set [8] is T1, Methylcytosine dioxygenase TET1. Type of data set: cell-based. Particulars: U2OS, dose > 33.0 µM.
Data set [9] deals with U2OS. Type of data set: toxicity, cell-based. Particulars: human. This is another data set of the same source.
Data set [10] is filed under the species Homo sapiens. The data set can be described thus: Competitive inhibition of N-terminal His-tagged recombinant human TET2 catalytic domain LCIdel mutant (D1129 to G1936 residues with Y1481 to N1843 replaced by a 3 x GGGGS linker) expressed in Escherichia coli BL21 (DE3) using 5-methylcytosine as substrate preincubated for 10 mins followed by DNA-cofactor addition in presence of 2-OG and measured after 10 mins by Alphascreen assay. Particulars: time 20.0 min.

The target in data set [11] is T3, Methylcytosine dioxygenase TET2 (Homo sapiens, UniProt Q6N021). Particulars: sf9.
The target of data set [12] is T3, Methylcytosine dioxygenase TET2. The data set can be described thus: biochemical.
Data set [13] deals with T1, Methylcytosine dioxygenase TET1.
The target is the same in data set [14]. Type of data set: cell-based. Particulars: U2OS, dose 3.0 mM.
Data set [15] shares this target. Type of data set: cell-based. Particulars: U2OS, dose 1.0 mM.

What is called pCC50 is −log10 of the CC50, conventionally taken in molar units. Read a low pCC50 as a high CC50. The term inhibition denotes the percentage by which the read-out fell short of the control. Broadly, the EC50 is the midpoint of the concentration-response curve. A lower EC50 goes with a more potent agent.

Active and inactive are the calls of the source. The calls are words filed in the database; no cut-off is given here. Bounds are passed on as bounds.

T1 sequence (Q8NFU7 whole entry, the tested form may be a part): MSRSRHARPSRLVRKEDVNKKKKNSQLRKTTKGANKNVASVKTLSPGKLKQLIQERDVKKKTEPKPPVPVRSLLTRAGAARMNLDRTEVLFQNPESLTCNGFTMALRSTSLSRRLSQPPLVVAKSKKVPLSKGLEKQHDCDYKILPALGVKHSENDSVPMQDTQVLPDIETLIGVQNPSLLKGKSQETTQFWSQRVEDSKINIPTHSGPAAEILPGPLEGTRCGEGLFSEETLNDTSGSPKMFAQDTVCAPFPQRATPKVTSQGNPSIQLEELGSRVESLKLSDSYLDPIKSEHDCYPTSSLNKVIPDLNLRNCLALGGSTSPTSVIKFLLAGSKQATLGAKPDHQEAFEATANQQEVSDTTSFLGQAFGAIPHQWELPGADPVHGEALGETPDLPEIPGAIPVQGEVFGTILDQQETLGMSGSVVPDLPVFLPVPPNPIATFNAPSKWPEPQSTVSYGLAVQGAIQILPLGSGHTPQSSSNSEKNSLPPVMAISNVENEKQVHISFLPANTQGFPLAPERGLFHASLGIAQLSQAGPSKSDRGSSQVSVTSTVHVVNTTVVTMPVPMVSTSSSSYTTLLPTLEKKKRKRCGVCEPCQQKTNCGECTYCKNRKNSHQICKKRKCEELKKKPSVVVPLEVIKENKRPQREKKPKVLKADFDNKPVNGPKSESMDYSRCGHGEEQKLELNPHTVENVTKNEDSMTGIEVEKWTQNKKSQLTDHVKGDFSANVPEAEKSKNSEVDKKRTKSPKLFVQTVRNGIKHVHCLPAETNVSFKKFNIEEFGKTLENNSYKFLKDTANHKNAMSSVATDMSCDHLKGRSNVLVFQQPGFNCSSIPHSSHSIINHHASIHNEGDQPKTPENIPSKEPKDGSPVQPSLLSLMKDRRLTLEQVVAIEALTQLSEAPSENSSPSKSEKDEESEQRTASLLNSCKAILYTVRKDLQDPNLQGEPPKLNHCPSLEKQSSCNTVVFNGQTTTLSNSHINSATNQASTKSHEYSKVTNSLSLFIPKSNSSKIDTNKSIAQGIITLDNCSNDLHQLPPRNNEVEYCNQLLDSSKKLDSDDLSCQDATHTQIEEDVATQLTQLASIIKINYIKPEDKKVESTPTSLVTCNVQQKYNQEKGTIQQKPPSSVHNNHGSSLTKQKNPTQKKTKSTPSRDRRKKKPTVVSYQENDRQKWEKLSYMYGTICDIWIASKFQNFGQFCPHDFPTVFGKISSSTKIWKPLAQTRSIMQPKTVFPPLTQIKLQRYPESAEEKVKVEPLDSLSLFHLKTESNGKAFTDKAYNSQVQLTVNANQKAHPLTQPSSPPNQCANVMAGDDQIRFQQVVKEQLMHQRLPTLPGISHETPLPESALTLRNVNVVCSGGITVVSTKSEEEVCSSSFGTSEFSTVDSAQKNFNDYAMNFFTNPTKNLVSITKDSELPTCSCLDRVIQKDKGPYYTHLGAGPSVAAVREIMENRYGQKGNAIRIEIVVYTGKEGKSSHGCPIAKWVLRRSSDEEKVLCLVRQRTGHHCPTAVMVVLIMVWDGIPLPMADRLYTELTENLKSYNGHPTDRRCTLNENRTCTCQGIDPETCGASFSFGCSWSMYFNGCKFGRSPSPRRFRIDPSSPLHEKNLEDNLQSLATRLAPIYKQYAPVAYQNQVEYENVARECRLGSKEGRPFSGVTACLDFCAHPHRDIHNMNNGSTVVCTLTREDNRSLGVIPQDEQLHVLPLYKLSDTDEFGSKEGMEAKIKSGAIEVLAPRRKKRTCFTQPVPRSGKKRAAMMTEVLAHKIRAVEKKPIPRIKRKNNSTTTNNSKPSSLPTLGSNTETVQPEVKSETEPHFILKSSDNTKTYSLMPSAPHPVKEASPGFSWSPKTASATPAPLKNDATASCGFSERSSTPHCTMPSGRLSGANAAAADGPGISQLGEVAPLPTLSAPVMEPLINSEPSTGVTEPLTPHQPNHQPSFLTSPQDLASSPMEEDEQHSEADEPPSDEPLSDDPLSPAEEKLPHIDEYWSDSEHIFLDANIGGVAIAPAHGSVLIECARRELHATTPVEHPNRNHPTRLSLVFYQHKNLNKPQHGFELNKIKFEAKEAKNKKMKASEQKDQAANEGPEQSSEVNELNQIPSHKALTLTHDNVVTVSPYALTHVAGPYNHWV
T2 sequence (O43151 whole entry, the tested form may be a part): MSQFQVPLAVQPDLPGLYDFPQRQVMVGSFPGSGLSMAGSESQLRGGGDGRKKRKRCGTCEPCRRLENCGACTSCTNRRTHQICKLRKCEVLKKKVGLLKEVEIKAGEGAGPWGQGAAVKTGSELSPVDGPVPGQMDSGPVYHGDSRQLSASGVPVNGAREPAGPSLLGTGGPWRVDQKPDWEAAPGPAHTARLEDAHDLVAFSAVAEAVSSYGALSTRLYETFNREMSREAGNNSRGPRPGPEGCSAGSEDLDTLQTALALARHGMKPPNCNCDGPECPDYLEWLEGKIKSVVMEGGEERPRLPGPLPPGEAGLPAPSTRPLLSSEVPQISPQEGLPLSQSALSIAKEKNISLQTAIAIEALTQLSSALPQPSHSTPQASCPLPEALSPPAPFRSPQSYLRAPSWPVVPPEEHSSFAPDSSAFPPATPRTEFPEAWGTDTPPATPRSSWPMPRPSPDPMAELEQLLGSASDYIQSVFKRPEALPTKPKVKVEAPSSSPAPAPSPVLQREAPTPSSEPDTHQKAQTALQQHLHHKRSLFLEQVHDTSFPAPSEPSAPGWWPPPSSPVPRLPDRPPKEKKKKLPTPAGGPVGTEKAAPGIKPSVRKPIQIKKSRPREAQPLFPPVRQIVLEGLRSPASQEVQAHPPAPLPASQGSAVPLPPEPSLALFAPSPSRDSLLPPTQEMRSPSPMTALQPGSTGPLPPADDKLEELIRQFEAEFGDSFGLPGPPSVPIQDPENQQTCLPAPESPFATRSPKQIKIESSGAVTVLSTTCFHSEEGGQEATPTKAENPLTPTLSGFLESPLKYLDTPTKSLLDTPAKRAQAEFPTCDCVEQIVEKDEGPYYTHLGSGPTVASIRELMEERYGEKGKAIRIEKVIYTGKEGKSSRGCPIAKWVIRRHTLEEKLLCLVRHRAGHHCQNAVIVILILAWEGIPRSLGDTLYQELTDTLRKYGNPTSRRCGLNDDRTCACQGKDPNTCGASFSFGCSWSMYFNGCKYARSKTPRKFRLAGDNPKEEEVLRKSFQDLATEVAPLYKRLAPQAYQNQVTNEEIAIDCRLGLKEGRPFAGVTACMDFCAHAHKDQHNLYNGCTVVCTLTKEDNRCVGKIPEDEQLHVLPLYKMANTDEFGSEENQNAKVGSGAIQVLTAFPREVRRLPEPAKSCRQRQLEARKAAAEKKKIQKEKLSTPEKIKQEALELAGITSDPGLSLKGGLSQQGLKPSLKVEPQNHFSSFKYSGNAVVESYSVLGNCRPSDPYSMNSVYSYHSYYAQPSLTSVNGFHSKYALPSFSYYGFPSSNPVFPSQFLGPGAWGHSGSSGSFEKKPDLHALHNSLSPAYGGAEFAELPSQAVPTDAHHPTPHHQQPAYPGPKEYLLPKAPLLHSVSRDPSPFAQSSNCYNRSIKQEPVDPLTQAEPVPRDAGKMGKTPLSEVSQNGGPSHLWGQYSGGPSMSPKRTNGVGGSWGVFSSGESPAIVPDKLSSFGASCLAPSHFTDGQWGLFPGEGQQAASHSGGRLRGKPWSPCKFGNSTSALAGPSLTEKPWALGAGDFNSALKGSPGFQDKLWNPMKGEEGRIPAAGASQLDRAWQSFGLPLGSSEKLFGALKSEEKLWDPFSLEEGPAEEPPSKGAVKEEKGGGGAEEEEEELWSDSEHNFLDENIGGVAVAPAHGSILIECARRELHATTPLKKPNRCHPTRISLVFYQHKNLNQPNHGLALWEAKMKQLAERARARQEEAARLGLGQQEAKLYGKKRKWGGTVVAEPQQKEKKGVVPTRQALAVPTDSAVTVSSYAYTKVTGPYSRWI

`CCCCCCCCOC(=O)[C@H](O)CCC(=O)O`: in data set [1], the pCC50 is recorded as less than 2.7.
For the molecule `Cc1nc(C(=O)NCC(=O)O)c(O)c2ccc(Oc3ccccc3)cc12` [ROXADUSTAT], the IC50 is no less than 100 µM in [2] (read-out: pIC50 (converted)); no less than 100 µM in data set [2] (sf9, read-out: IC50); no less than 100 µM in [3] (read-out: IC50); no less than 100 µM in [3] (read-out: pIC50 (converted)). Moreover, in [4], the inhibition was less than 20%.
`O=C(O)CCNc1cc(N2CCc3ccccc3CC2)nc(-c2ccccn2)n1`: the IC50 in data set [2] (read-out: IC50) is greater than 100 µM. For the same molecule, the inhibition in [4] was less than 20%.
For `CN(c1ccccc1)c1ccc2c(c1)CCC[C@H]2CNc1cnccc1C(=O)O`, the IC50 in [2] (read-out: IC50) and in data set [3] (read-out: IC50) was greater than 100 µM each time.
The molecule `COC(=O)CCC(=O)C(=O)OC` gave a pCC50 in data set [1] of less than 2.
Regarding `CCN(CCN(C)C)C(=O)CNCc1cc(C(N)=O)ccn1`, the IC50 in data set [2] (read-out: IC50) and in [3] (read-out: IC50) was greater than 100 µM each time. In addition, the inhibition in data set [5], in data set [6] and in data set [7] was less than 20% each time.
Take `Cc1[nH]c2ccccc2c1CCNCc1ccc(/C=C/C(=O)NO)cc1` [PANOBINOSTAT]: the inhibition result in data set [8] was “Active”. Also, in data set [9], the Activity result is “Dose-Dependent Effect”.
For the molecule `O=C(O)c1ccc(O)c2ncccc12`, the inhibition entry in [10] is “Active”.
Consider `CC(C)c1c(-c2ccccc2)[nH]c2c(C#N)cnn2c1=O`, for which the IC50 in data set [2] (read-out: IC50) and in data set [3] (read-out: IC50) was greater than 100 µM throughout. Moreover, the inhibition in data set [5], in data set [6], in data set [4] and in data set [7] was less than 20% throughout.
With `Cc1cn([C@H]2C[C@H](O)[C@@H](CO)O2)c(=O)nc1N`, the inhibition in data set [7] is less than 20%.
The same measure, in the same setting: to `Nc1nc(=O)n([C@H]2C[C@H](O)[C@@H](CO)O2)cc1CO` belongs less than 20%.
With `O=C(O)CNC(=O)c1c(O)n(C2CCCCC2)c(=O)n(C2CCCCC2)c1=O`, the IC50 was no less than 100 µM in data set [2] (read-out: pIC50 (converted)); no less than 100 µM in data set [2] (sf9, read-out: IC50); no less than 100 µM in [3] (read-out: IC50); no less than 100 µM in [3] (read-out: pIC50 (converted)); no less than 100 µM in [11]; no less than 100 µM in data set [12]. The inhibition worked out at 63% in [5] and 36% in data set [6].
As for `O=C(O)CNC(=O)c1nc(Cl)c2ccccc2c1O`, the IC50 was no less than 100 µM in data set [2] (read-out: pIC50 (converted)); no less than 100 µM in [2] (sf9, read-out: IC50); no less than 100 µM in [3] (read-out: IC50); no less than 100 µM in data set [3] (read-out: pIC50 (converted)).
On to `O=c1c(-n2ccnn2)c[nH]n1-c1cc(N2CCOCC2)ncn1` [MOLIDUSTAT], for which the EC50 in data set [13] is roughly 100 µM.
Take `O=C(O)CNC(=O)c1c(O)c2ccccc2n(Cc2ccccc2)c1=O`: the IC50 in data set [2] (read-out: pIC50 (converted)) was no less than 100 µM; in [2] (sf9, read-out: IC50), no less than 100 µM; in data set [3] (read-out: IC50), no less than 100 µM; in data set [3] (read-out: pIC50 (converted)), no less than 100 µM. The molecule also gave an inhibition in data set [6] of less than 20%.
`CCCCCCCCOC(=O)[C@@H](O)CCC(=O)O` yielded a pCC50 in [1] of less than 2.7. For the same molecule, in [14], the inhibition result was “inactive”.
For the molecule `COC(=O)c1ccnc(C(=O)OC)c1`, the inhibition entry in [15] is “inactive”.
